Experimental data as given in the supplement of paper PMC11061612.

Legend:
[1] = system: OSC-20 (Oral Cavity Carcinoma); test: Bliss excess, mean over the matrix (fraction); higher = more synergy
Outline: (§1)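 After 24 hours at 37°C and 5% CO2 in 1536-well plates, cells in DMEM/F12 or RPMI plus 10% FBS received two-drug dose matrices for 72 hours. Viability came from CellTiter-Glo 2.0 luminescence and was scaled as inhibition, anchored at 0 by vehicle wells and at 1 by blank wells. Combination Emax is taken as the second-highest inhibition in the matrix, and Bliss excess as the observed combination effect less EA + EB − EA·EB, with EA and EB the single-agent effects.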

[2] = system: OVCAR-4 (Ovarian Carcinoma); test: as above
Outline: as §1

[3] = system: KMOE-2 (Acute Myeloid Leukemia); test: as above
Outline: as §1

[4] = system: TE-1 (Esophageal Squamous Cell Carcinoma); test: as above
Outline: as §1

[5] = system: JVM-3 (B-Cell Non-Hodgkin's Lymphoma); test: as above
Outline: as §1

[6] = system: NUGC-3 (Gastric Carcinoma); test: as above
Outline: as §1

[7] = system: SCC-15 (Oral Cavity Carcinoma); test: as above
Outline: as §1

[8] = system: C-4-I (Cervical Carcinoma); test: as above
Outline: as §1

[9] = system: NCI-H1915 (Non-Small Cell Lung Carcinoma); test: as above
Outline: as §1

[10] = system: OE19 (Esophageal Adenocarcinoma); test: as above
Outline: as §1

[11] = system: HOP-62 (Lung Adenocarcinoma); test: as above
Outline: as §1

[12] = system: SU8686 (Pancreatic Carcinoma); test: as above
Outline: as §1

[13] = system: VA-ES-BJ (Other Solid Carcinomas); test: as above
Outline: as §1

[14] = system: TE-1 (Esophageal Squamous Cell Carcinoma); test: combination Emax (second highest fraction inhibited in the dose matrix, 72 h); higher = more inhibition; extreme values may be limits of the assay
Outline: as §1

[15] = system: JVM-3 (B-Cell Non-Hodgkin's Lymphoma); test: as above
Outline: as §1

[16] = system: HSC-4 (Oral Cavity Carcinoma); test: as above
Outline: as §1

[17] = system: HGC-27 (Gastric Carcinoma); test: as above
Outline: as §1

[18] = system: NEC8 (Other Solid Carcinomas); test: as above
Outline: as §1

[19] = system: OE19 (Esophageal Adenocarcinoma); test: as above
Outline: as §1

[20] = system: HOP-62 (Lung Adenocarcinoma); test: as above
Outline: as §1
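Wherever Bliss excess, mean over the matrix is given: after 72 h of two-drug dosing.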

SMILES	Bliss excess [1]	Bliss excess [2]	Bliss excess [3]	Bliss excess [4]	Bliss excess [5]	Bliss excess [6]	Bliss excess [7]	Bliss excess [8]	Bliss excess [9]	Bliss excess [10]	Bliss excess [11]	Bliss excess [12]	Bliss excess [13]	combination Emax [14]	combination Emax [15]	combination Emax [16]	combination Emax [17]	combination Emax [18]	combination Emax [19]	combination Emax [20]
Cc1cc2ncnn2cc1Nc1ncc2c(n1)n(C1CCOCC1)c(=O)n2C [AZD7648] + CN(C)CCCOc1ccc(-c2ccc3ncc4c(c3c2)n(C2CCOCC2)c(=O)n4C)cn1 [AZD0156] (first compound max 10 µM, 7x7, partner max 1 µM)	-0.0082	-0.0126	0.0226	-0.051	-0.0297	-0.0262	0.0215	0.0099	-0.0208	0.0583	-0.0173	-0.0144	0.0248	0.19	0.638	0.112	0.611	0.0719	0.363	0.144
Cc1cc2ncnn2cc1Nc1ncc2c(n1)n(C1CCOCC1)c(=O)n2C [AZD7648] + CCN(CCO)CCCOc1ccc2c(Nc3cc(CC(=O)Nc4cccc(F)c4)[nH]n3)ncnc2c1 [AZD2811] (first compound max 10 µM, 7x7, partner max 1 µM)	-0.0209	-0.0035	0.0325	-0.0535	0.0791	-0.0046	0.071	0.048	-0.0444	0.0151	0.0126	-0.0135	-0.0034	0.246	0.592	0.188	0.856	0.0355	0.774	0.204
CN(CCO)CC[C@H](CSc1ccccc1)Nc1ccc(S(=O)(=O)NC(=O)c2ccc(N3CCC([C@@H](O)c4ccccc4-c4ccc(Cl)cc4)CC3)cc2)cc1S(=O)(=O)C(F)(F)F [AZD4320] + Cc1cc2ncnn2cc1Nc1ncc2c(n1)n(C1CCOCC1)c(=O)n2C [AZD7648] (first compound max 1 µM, 7x7, partner max 10 µM)	-0.0548	-0.0412	-0.0058	-0.0443	-0.0214	-0.0234	-0.0152	-0.0082	-0.0254	-0.0219	-0.0479	-0.0355	-0.0364	0.38	0.916	0.129	0.473	0.159	0.415	0.167
CN(CCO)CC[C@H](CSc1ccccc1)Nc1ccc(S(=O)(=O)NC(=O)c2ccc(N3CCC([C@@H](O)c4ccccc4-c4ccc(Cl)cc4)CC3)cc2)cc1S(=O)(=O)C(F)(F)F [AZD4320] + C[C@@H](Nc1cc(F)cc(F)c1)c1cc(C(=O)N(C)C)cc2c(=O)cc(N3CCOCC3)oc12 [AZD8186] (first compound max 1 µM, 7x7, partner max 3 µM)	0.0146	0.0154	0.0407	-0.0549	0.0456	-0.0383	-0.0179	0.0681	0.0202	0.0201	-0.0226	-0.0031	0.0393	0.532	1	0.852	0.64	0.341	0.489	0.602
